For the test, the system named is BDF1 mice, B16 melanoma ip, median survival T/C. The test is described as follows: NCI In Vivo Anticancer Drug Screen. Data for tumor model B16 Melanoma (intraperitoneal) in B6D2F1 (BDF1) mice. The note with it: endpoint: median survival time, higher = longer survival. The method, boiled down:
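Tumor-bearing mice received test compound or vehicle. Survival or tumor size was then measured in both groups. The treated-group figure was divided by the control-group figure.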

Where [1] appears, read: dose: 50.0 mg/kg/injection, schedule: Q01DX009 (ip), vehicle: Klucel (hydroxypropylcellulose) (HPC).
Where [2] appears, read: dose: 100.0 mg/kg/injection, schedule: Q01DX009 (ip), vehicle: Klucel (hydroxypropylcellulose) (HPC).
The mark [3] stands for this setting: dose: 25.0 mg/kg/injection, schedule: Q01DX009 (ip), vehicle: saline with Tween-80.
The mark [4] stands for this setting: dose: 50.0 mg/kg/injection, schedule: Q01DX009 (ip), vehicle: saline with Tween-80.
[5] abbreviates: dose: 100.0 mg/kg/injection, schedule: Q01DX009 (ip), vehicle: saline with Tween-80.
The mark [6] stands for this setting: dose: 100.0 mg/kg/injection, schedule: Q04DX003 (ip), vehicle: Klucel (hydroxypropylcellulose) (HPC).
Setting [7] is: dose: 200.0 mg/kg/injection, schedule: Q04DX003 (ip), vehicle: Klucel (hydroxypropylcellulose) (HPC).
The mark [8] stands for this setting: dose: 400.0 mg/kg/injection, schedule: Q04DX003 (ip), vehicle: Klucel (hydroxypropylcellulose) (HPC).
Where [9] appears, read: dose: 0.13 mg/kg/injection, schedule: Q01DX009 (ip), vehicle: saline.
The mark [10] stands for this setting: dose: 0.25 mg/kg/injection, schedule: Q01DX009 (ip), vehicle: saline.
[11] abbreviates: dose: 0.5 mg/kg/injection, schedule: Q01DX009 (ip), vehicle: saline.
Setting [12] is: dose: 1.0 mg/kg/injection, schedule: Q01DX009 (ip), vehicle: saline.
[13] abbreviates: dose: 50.0 mg/kg/injection, schedule: Q01DX009 (ip), vehicle: saline.
The mark [14] stands for this setting: dose: 100.0 mg/kg/injection, schedule: Q01DX009 (ip), vehicle: saline.
Where [15] appears, read: dose: 200.0 mg/kg/injection, schedule: Q01DX009 (ip), vehicle: saline.
[16] abbreviates: dose: 200.0 mg/kg/injection, schedule: Q01DX009 (ip), vehicle: Klucel (hydroxypropylcellulose) (HPC).
The mark [17] stands for this setting: dose: 400.0 mg/kg/injection, schedule: Q01DX009 (ip), vehicle: Klucel (hydroxypropylcellulose) (HPC).
[18] abbreviates: dose: 200.0 mg/kg/injection, schedule: Q01DX009 (ip), vehicle: saline with Tween-80.

Inconclusive results and toxic doses are left out.

On to `CC(NC(C)c1ccccc1)c1ccccc1` (configuration not stated), for which the T/C reads like this: (dose: 25.0 mg/kg/injection, schedule: Q01DX009 (ip), vehicle: Klucel (hydroxypropylcellulose) (HPC)) 93 % of control; under setting [1], 106 % of control; under setting [2], 96 % of control.
As to `O=C(CCCc1ccc(N(CCCl)CCCl)cc1)Nc1ncccn1`, the T/C is 104 % of control (dose: 3.0 mg/kg/injection, schedule: Q01DX009 (ip), vehicle: Klucel (hydroxypropylcellulose) (HPC)); 109 % of control (dose: 6.0 mg/kg/injection, schedule: Q01DX009 (ip), vehicle: Klucel (hydroxypropylcellulose) (HPC)); 109 % of control (dose: 12.0 mg/kg/injection, schedule: Q01DX009 (ip), vehicle: Klucel (hydroxypropylcellulose) (HPC)).
As for `CCCC(C(=O)O)C1=CCCC1` (configuration not stated), the T/C is 115 % of control under setting [3], 112 % of control under setting [4] and 103 % of control under setting [5].
For the compound `COc1ccc(C(C)=O)cc1N`, the T/C reads like this: under setting [6], 100 % of control; under setting [7], 97 % of control; under setting [8], 95 % of control.
In the case of `C(/C=C/C=C/N1CCCCC1)=[N+]1CCCCC1`, the T/C under setting [9] was 96 % of control, the T/C under setting [10] is 107 % of control, the T/C under setting [11] is 101 % of control and the T/C under setting [12] was 105 % of control.
As to `CC(=O)C(C)(NCc1ccccc1)c1ccccc1` (configuration not stated), the T/C under setting [1] is 86 % of control and the T/C under setting [2] was 89 % of control.
For the compound `Cc1n(Cc2ccccc2)c2c([n+]1C)C(=O)c1ccccc1C2=O`, the T/C by setting is: under setting [9], 95 % of control; under setting [10], 95 % of control; under setting [11], 95 % of control; under setting [12], 87 % of control.
Consider `CC(C)c1ccc(C(O)C2CC2)cc1` (configuration not stated), for which the T/C is 110 % of control under setting [4] and 102 % of control under setting [5].
Turning to `Cc1cc(C)[nH]c(=S)n1`, the T/C is 95 % of control under setting [13], 95 % of control under setting [14] and 106 % of control under setting [15].
With `CCCN(C)/N=N/c1nc[nH]c1C(N)=O`, the T/C under setting [4] is 112 % of control.
`CCOc1ccc(N=Nc2ccc(N)cc2N)cc1`: the T/C reads like this: under setting [2], 101 % of control; under setting [16], 106 % of control; under setting [17], 108 % of control.
As to `COc1ccc(/C=C/c2nc3ccccc3nc2/C=C/c2ccc(OC)c(OC)c2)cc1OC`, the T/C (dose: 6.25 mg/kg/injection, schedule: Q01DX009 (ip), vehicle: carboxymethylcellulose (CMC)) is 99 % of control; the T/C (dose: 12.5 mg/kg/injection, schedule: Q01DX009 (ip), vehicle: carboxymethylcellulose (CMC)) was 92 % of control; the T/C (dose: 25.0 mg/kg/injection, schedule: Q01DX009 (ip), vehicle: carboxymethylcellulose (CMC)) was 89 % of control.
In the case of `CCC(=O)c1ccccc1N`, the T/C is 97 % of control under setting [2] and 98 % of control under setting [16].
For `O=C(Nc1cccc(Cl)c1)Nc1cc(Cl)ccc1Cl`, the T/C runs as follows: under setting [5], 100 % of control; under setting [18], 89 % of control; (dose: 400.0 mg/kg/injection, schedule: Q01DX009 (ip), vehicle: saline with Tween-80) 86 % of control.
For the compound `CCSCCNC(=O)[C@@]1(O)[C@H](O)[C@]2(CC)C=CCN3CC[C@@]4(c5cc([C@@]6(OC(C)=O)C[C@H]7C=C(CC)CN(CCc8c6[nH]c6ccccc86)C7)c(OC)cc5N(C)[C@@H]14)[C@@H]32`, the T/C reads like this: (dose: 0.13 mg/kg/injection, schedule: Q01DX009 (ip), vehicle: water) 100 % of control; (dose: 0.25 mg/kg/injection, schedule: Q01DX009 (ip), vehicle: water) 115 % of control; (dose: 0.5 mg/kg/injection, schedule: Q01DX009 (ip), vehicle: water) 120 % of control; (dose: 1.0 mg/kg/injection, schedule: Q01DX009 (ip), vehicle: water) 155 % of control; (dose: 2.0 mg/kg/injection, schedule: Q01DX009 (ip), vehicle: water) 162 % of control.
As for `C[C@H]1CCC/C=C/[C@@H]2C[C@H](O)C[C@H]2[C@H](O)/C=C/C(=O)O1`, the T/C (dose: 2.5 mg/kg/injection, schedule: Q01DX009 (ip), vehicle: Klucel (hydroxypropylcellulose) (HPC)) is 116 % of control; the T/C (dose: 5.0 mg/kg/injection, schedule: Q01DX009 (ip), vehicle: Klucel (hydroxypropylcellulose) (HPC)) was 104 % of control; the T/C (dose: 10.0 mg/kg/injection, schedule: Q01DX009 (ip), vehicle: Klucel (hydroxypropylcellulose) (HPC)) is 103 % of control.
In the case of `CCCCC/C(C)=N\Nc1ccccn1`, the T/C is, setting by setting: (dose: 12.5 mg/kg/injection, schedule: Q01DX009 (ip), vehicle: saline sonified) 106 % of control; (dose: 25.0 mg/kg/injection, schedule: Q01DX009 (ip), vehicle: saline sonified) 100 % of control; (dose: 50.0 mg/kg/injection, schedule: Q01DX009 (ip), vehicle: saline sonified) 102 % of control; (dose: 100.0 mg/kg/injection, schedule: Q01DX009 (ip), vehicle: saline sonified) 100 % of control.
Consider `CCc1ccccc1NC(=O)C(c1ccccc1)c1ccccc1`, for which the T/C was 99 % of control under setting [3], 97 % of control under setting [4] and 92 % of control under setting [5].
With `CN(C)/C=C/C(=O)c1ccccc1[N+](=O)[O-]`, the T/C was 115 % of control under setting [2]; 95 % of control under setting [6]; 100 % of control under setting [16]; 92 % of control under setting [7]; 93 % of control under setting [17]; 88 % of control under setting [8].
As to `CCC(=O)c1ccc2c(c1)N(CCCN1CCN(CCO)CC1)c1ccccc1S2`, the T/C was 100 % of control under setting [10]; 95 % of control under setting [11]; 92 % of control under setting [12]; 89 % of control (dose: 2.0 mg/kg/injection, schedule: Q01DX009 (ip), vehicle: saline); 105 % of control (dose: 4.0 mg/kg/injection, schedule: Q01DX009 (ip), vehicle: saline).
For the compound `O=C1C(=O)C(Cl)=C(Cl)C(Cl)=C1Cl`, the T/C is, setting by setting: (dose: 0.75 mg/kg/injection, schedule: Q01DX009 (ip), vehicle: saline) 106 % of control; (dose: 1.5 mg/kg/injection, schedule: Q01DX009 (ip), vehicle: saline) 93 % of control; (dose: 3.0 mg/kg/injection, schedule: Q01DX009 (ip), vehicle: saline) 93 % of control.
Consider `CCCCCCCCCCCCCCCc1ccc(C(=O)C[n+]2ccccc2)cc1`, for which the T/C (dose: 3.12 mg/kg/injection, schedule: Q01DX009 (ip), vehicle: saline with Tween-80) is 102 % of control; the T/C (dose: 6.25 mg/kg/injection, schedule: Q01DX009 (ip), vehicle: saline with Tween-80) was 100 % of control; the T/C (dose: 12.5 mg/kg/injection, schedule: Q01DX009 (ip), vehicle: saline with Tween-80) is 95 % of control; the T/C under setting [3] is 93 % of control.
With `CCNCCCN`, the T/C is 102 % of control (dose: 6.25 mg/kg/injection, schedule: Q01DX009 (ip), vehicle: saline); 102 % of control (dose: 12.5 mg/kg/injection, schedule: Q01DX009 (ip), vehicle: saline); 94 % of control (dose: 25.0 mg/kg/injection, schedule: Q01DX009 (ip), vehicle: saline).
For `Cc1cccc(NS(=O)(=O)c2ccccc2)c1C`, the T/C runs as follows: under setting [4], 98 % of control; under setting [2], 96 % of control; under setting [5], 98 % of control; under setting [18], 97 % of control; under setting [17], 88 % of control.
For the compound `O=C(O)C(Cl)Cc1cnc[nH]1` (configuration not stated), the T/C was 111 % of control under setting [13], 111 % of control under setting [14] and 112 % of control under setting [15].
Turning to `COc1cccc(/C=C/C(=O)O)c1OC`, the T/C reads like this: (dose: 50.0 mg/kg/injection, schedule: Q01DX009 (ip), vehicle: other) 101 % of control; (dose: 100.0 mg/kg/injection, schedule: Q01DX009 (ip), vehicle: other) 107 % of control; (dose: 200.0 mg/kg/injection, schedule: Q01DX009 (ip), vehicle: other) 98 % of control; (dose: 400.0 mg/kg/injection, schedule: Q01DX009 (ip), vehicle: other) 93 % of control.

These data come from PubChem BioAssay AID192 (DTP/NCI, 2004).
